Laboratory results reported in patent US10149879B2 (priority 2014, dated 2018).

Experiments:
[1] = tested on: L6-myotubes; test: Anti-diabetic activity (glucose consumption) in L6-myotubes; format: cell-based; parameters: Anti-diabetic activity (glucose consumption): unit not given here; settings: for Anti-diabetic activity (glucose consumption): L6-myotubes, control 1.00
[2] = tested on: 3T3-L1 cells; test: Anti-oxidant activity in 3T3-L1 cells challenged with H2O2; format: cell-based; parameters: Anti-oxidant activity, cells challenged with H2O2: scale not given here; settings: for Anti-oxidant activity, cells challenged with H2O2: 3T3-L1; for protection against H2O2 induced cellular oxidative damage: 3T3-L1 cells
Text: Anti-Oxidant Activity in 3T3-L1 Cells Challenged with H2O2 Berberin and Palmatine
Anti-Oxidant Activity in 3T3-L1 Cells Challenged with H2O2 Berberin and Quercetin

[3] = tested on: L6 cells; test: Anti-oxidant activity in L6 cells challenged with H2O2; format: cell-based; parameters: Anti-oxidant activity, cells challenged with H2O2: unit not given here; settings: for Anti-oxidant activity, cells challenged with H2O2: L6; for protection against H2O2 induced cellular oxidative damage: L6 cells
Text: Anti-Oxidant Activity in L6 Cells Challenged with H2O2 Berberin and Palmatine
Anti-Oxidant Activity in L6 Cells Challenged with H2O2—Berberin and Quercetin

[4] = tested on: βTC6 insulinoma cell; test: Anti-oxidant activity in βTC6 insulinoma cell challenged with H2O2; format: cell-based; parameters: Anti-oxidant activity, cells challenged with H2O2: unit not given here; settings: for Anti-oxidant activity, cells challenged with H2O2: βTC6
Text: Anti-Oxidant Activity in βTC6 Insulinoma Cell Challenged with H2O2 Berberin and Quercetin—
Anti-Oxidant Activity in βTC6 Insulinoma Cell Challenged with H2O2 Berberin and Palmatine—

[5] = target: T1, Aldose reductase (Rattus norvegicus, UniProt P07943); test: Aldose reductase activity; format: in vivo, rats; settings: H.G. animals; standard drug
T1 construct: from tissue; STZ-induced diabetic animals
Description: Before utilizing the test drug for human consumption the pre-clinical safety and efficacy profile of single plant candidate extract as well as in combined form was conducted following standard norms. […] The effect of test drug was assessed on glucose levels, insulin level, glycosylated hemoglobin, and pro-inflammatory cytokines, and the most important bio-marker neopterin including various neuro-psychological assessments. […] Aldose Reductase Activity and Glycation of Hemoglobin Following Test Formulation Treatment

[6] = comparison with positive standard

## COc1ccc2cc3[n+](cc2c1OC)CCc1cc2c(cc1-3)OCO2 [Berberin]
[1]; 1 nM
  Anti-diabetic activity (glucose consumption): 1.38 ± 0.08
[1]; 5 nM
  Anti-diabetic activity (glucose consumption): 1.78 ± 0.08
[1]; 25 nM
  Anti-diabetic activity (glucose consumption): 1.98 ± 0.08
[1]; 125 nM
  Anti-diabetic activity (glucose consumption): 2.30 ± 0.08
[1]; 625 nM
  Anti-diabetic activity (glucose consumption): 2.50 ± 0.10
[1]; differentiated L6-myotubes, dose dependent
  glucose consumption: accelerated glucose consumption
[2]; Co-incubated, 10 pM, control 50.00
  Anti-oxidant activity, cells challenged with H2O2: 56.00 ± 3.35
[2]; Co-incubated, 10 pg/ml, control 49.00
  Anti-oxidant activity, cells challenged with H2O2: 53.00 ± 2.50
[2]; Co-incubated, 100 pM, control 50.00
  Anti-oxidant activity, cells challenged with H2O2: 58.96 ± 1.20
[2]; Co-incubated, 100 pg/ml, control 49.00
  Anti-oxidant activity, cells challenged with H2O2: 57.80 ± 2.50
[2]; Co-incubated, 1 nM, control 50.00
  Anti-oxidant activity, cells challenged with H2O2: 61.80 ± 1.80
[2]; Co-incubated, 1 ng/ml, control 49.00
  Anti-oxidant activity, cells challenged with H2O2: 65.15 ± 1.99
[2]; Co-incubated, 10 nM, control 50.00
  Anti-oxidant activity, cells challenged with H2O2: 63.00 ± 1.60
[2]; Co-incubated, 100 nM, control 50.00
  Anti-oxidant activity, cells challenged with H2O2: 63.38 ± 2.10
[2]; Co-incubated, 100 ng/ml (first of two lines so printed, r7), control 49.00
  Anti-oxidant activity, cells challenged with H2O2: 70.80 ± 3.25
[2]; Co-incubated, 100 ng/ml (second line, r8), control 49.00
  Anti-oxidant activity, cells challenged with H2O2: 77.50 ± 2.95
[2]; Pre-incubated, 10 pM, control 50.00
  Anti-oxidant activity, cells challenged with H2O2: 52.01 ± 2.80
[2]; Pre-incubated, 10 pg/ml, control 49.00
  Anti-oxidant activity, cells challenged with H2O2: 55.00 ± 2.00
[2]; Pre-incubated, 100 pM, control 50.00
  Anti-oxidant activity, cells challenged with H2O2: 55.76 ± 2.80
[2]; Pre-incubated, 100 pg/ml, control 49.00
  Anti-oxidant activity, cells challenged with H2O2: 58.00 ± 1.70
[2]; Pre-incubated, 1 nM, control 50.00
  Anti-oxidant activity, cells challenged with H2O2: 59.95 ± 2.10
[2]; Pre-incubated, 1 ng/ml, control 49.00
  Anti-oxidant activity, cells challenged with H2O2: 64.00 ± 1.90
[2]; Pre-incubated, 10 nM, control 50.00
  Anti-oxidant activity, cells challenged with H2O2: 61.13 ± 1.05
[2]; Pre-incubated, 100 nM, control 50.00
  Anti-oxidant activity, cells challenged with H2O2: 64.25 ± 2.30
[2]; Pre-incubated, 100 ng/ml (first of two lines so printed, r7), control 49.00
  Anti-oxidant activity, cells challenged with H2O2: 67.40 ± 3.70
[2]; Pre-incubated, 100 ng/ml (second line, r8), control 49.00
  Anti-oxidant activity, cells challenged with H2O2: 75.00 ± 4.15
[2]; [6]
  protection against H2O2 induced cellular oxidative damage: potent protection
[2]; pM-nM doses
  protection against H2O2 induced cellular oxidative damage: mild protection
[3]; Co-incubated, 10 pM, control 60.10
  Anti-oxidant activity, cells challenged with H2O2: 62.10 ± 4.40
[3]; Co-incubated, 10 pg/ml, control 61.10
  Anti-oxidant activity, cells challenged with H2O2: 60.40 ± 2.20
[3]; Co-incubated, 100 pM, control 60.10
  Anti-oxidant activity, cells challenged with H2O2: 63.97 ± 8.52
[3]; Co-incubated, 100 pg/ml, control 61.10
  Anti-oxidant activity, cells challenged with H2O2: 66.12 ± 2.70
[3]; Co-incubated, 1 nM, control 60.10
  Anti-oxidant activity, cells challenged with H2O2: 66.10 ± 5.67
[3]; Co-incubated, 1 ng/ml, control 61.10
  Anti-oxidant activity, cells challenged with H2O2: 70.07 ± 2.95
[3]; Co-incubated, 10 nM, control 60.10
  Anti-oxidant activity, cells challenged with H2O2: 69.40 ± 5.00
[3]; Co-incubated, 10 ng/ml, control 61.10
  Anti-oxidant activity, cells challenged with H2O2: 75.14 ± 0.90
[3]; Co-incubated, 100 nM, control 60.10
  Anti-oxidant activity, cells challenged with H2O2: 72.40 ± 3.03
[3]; Co-incubated, 100 ng/ml, control 61.10
  Anti-oxidant activity, cells challenged with H2O2: 77.51 ± 1.70
[3]; Pre-incubated, 10 pM, control 60.10
  Anti-oxidant activity, cells challenged with H2O2: 59.80 ± 6.60
[3]; Pre-incubated, 10 pg/ml, control 61.10
  Anti-oxidant activity, cells challenged with H2O2: 63.50 ± 1.00
[3]; Pre-incubated, 100 pM, control 60.10
  Anti-oxidant activity, cells challenged with H2O2: 60.40 ± 8.50
[3]; Pre-incubated, 100 pg/ml, control 61.10
  Anti-oxidant activity, cells challenged with H2O2: 69.40 ± 2.00
[3]; Pre-incubated, 1 nM, control 60.10
  Anti-oxidant activity, cells challenged with H2O2: 63.70 ± 7.25
[3]; Pre-incubated, 1 ng/ml, control 61.10
  Anti-oxidant activity, cells challenged with H2O2: 71.12 ± 1.12
[3]; Pre-incubated, 10 nM, control 60.10
  Anti-oxidant activity, cells challenged with H2O2: 68.60 ± 4.50
[3]; Pre-incubated, 10 ng/ml, control 61.10
  Anti-oxidant activity, cells challenged with H2O2: 78.98 ± 1.90
[3]; Pre-incubated, 100 nM, control 60.10
  Anti-oxidant activity, cells challenged with H2O2: 72.81 ± 5.70
[3]; Pre-incubated, 100 ng/ml, control 61.10
  Anti-oxidant activity, cells challenged with H2O2: 83.70 ± 1.70
[3]; [6]
  protection against H2O2 induced cellular oxidative damage: potent protection
[3]; pM-nM doses
  protection against H2O2 induced cellular oxidative damage: mild protection
[4]; Co-incubated, 1 pM, control 55.54
  Anti-oxidant activity, cells challenged with H2O2: 54.53 ± 1.67
[4]; Co-incubated, 1 pg/ml, control 55.64
  Anti-oxidant activity, cells challenged with H2O2: 59.70 ± 2.00
[4]; Co-incubated, 10 pM, control 55.54
  Anti-oxidant activity, cells challenged with H2O2: 54.79 ± 2.95
[4]; Co-incubated, 10 pg/ml, control 55.64
  Anti-oxidant activity, cells challenged with H2O2: 64.14 ± 2.04
[4]; Co-incubated, 100 pg/ml, control 55.64
  Anti-oxidant activity, cells challenged with H2O2: 67.40 ± 1.43
[4]; Co-incubated, 0.1 nM, control 55.54
  Anti-oxidant activity, cells challenged with H2O2: 56.02 ± 2.82
[4]; Co-incubated, 1 nM, control 55.54
  Anti-oxidant activity, cells challenged with H2O2: 59.80 ± 1.30
[4]; Co-incubated, 1 ng/ml, control 55.64
  Anti-oxidant activity, cells challenged with H2O2: 76.57 ± 1.50
[4]; Co-incubated, 10 nM, control 55.54
  Anti-oxidant activity, cells challenged with H2O2: 60.75 ± 2.16
[4]; Co-incubated, 10 ng/ml, control 55.64
  Anti-oxidant activity, cells challenged with H2O2: 85.90 ± 2.00
[4]; Pre-incubate, 1 pg/ml, control 55.64
  Anti-oxidant activity, cells challenged with H2O2: 61.60 ± 2.00
[4]; Pre-incubate, 10 pg/ml, control 55.64
  Anti-oxidant activity, cells challenged with H2O2: 65.18 ± 1.98
[4]; Pre-incubate, 100 pg/ml, control 55.64
  Anti-oxidant activity, cells challenged with H2O2: 67.05 ± 2.45
[4]; Pre-incubate, 1 ng/ml, control 55.64
  Anti-oxidant activity, cells challenged with H2O2: 74.40 ± 1.40
[4]; Pre-incubate, 10 ng/ml, control 55.64
  Anti-oxidant activity, cells challenged with H2O2: 77.69 ± 2.10
[4]; Pre-incubated, 1 pM, control 55.54
  Anti-oxidant activity, cells challenged with H2O2: 57.52 ± 0.80
[4]; Pre-incubated, 10 pM, control 55.54
  Anti-oxidant activity, cells challenged with H2O2: 58.90 ± 2.87
[4]; Pre-incubated, 0.1 nM, control 55.54
  Anti-oxidant activity, cells challenged with H2O2: 60.12 ± 3.40
[4]; Pre-incubated, 1 nM, control 55.54
  Anti-oxidant activity, cells challenged with H2O2: 61.70 ± 1.60
[4]; Pre-incubated, 10 nM, control 55.54
  Anti-oxidant activity, cells challenged with H2O2: 64.20 ± 1.65
[4]; βTC6 cells challenged with hydrogen peroxide
  anti-oxidant activity: potent anti-oxidant activity
[4]; βTC6 insulinoma cells
  protection against H2O2 induced cellular oxidative damage: Mild Protection

## CN(C)C(=N)N=C(N)N [Metformin]
[5]
  Aldose reductase: 2.60 ± 0.75 μM of NADPH oxidized/g of protein
